Measurements reported in patent US9499550B2 (BRISTOL-MYERS SQUIBB COMPANY, priority 2012, dated 2016).
pEC50: −log10 of the molar value. Like-named read-outs stand apart in the source and are kept apart here.

Assays:
[1] = tested on: HCV genotype 1b (Con1) replicon in HUH-7 cells; assay: HCV replicon luciferase reporter assay, genotype 1b; format: cell-based; conditions: Hepatitis C virus, Huh-7, 72 h, HCV genotype 1b replicon luciferase, 3 days incubation
Summary of the method: (§1)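 Replicon inhibition for both genotypes was measured as Renilla luciferase signal (EnduRen, 7.5 μM final, 2 h) after 3-day, 37° C exposure of replicon-bearing HUH-7 cells in 4% FCS DMEM, 0.5% DMSO. The 1b construct carries S1179I; the 1a H77 construct carries P1496L and S2204I. Twenty-point, 3-fold dilutions were fitted four-parametrically for EC50, and CC50 was taken from multiplexed Cell Titer-Blue.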

[2] = tested on: HCV genotype 1a (H77 strain) replicon in HUH-7 cells; assay: HCV replicon luciferase reporter assay, genotype 1a; format: cell-based; conditions: Hepatitis C virus, Huh-7, 72 h, HCV genotype 1a replicon luciferase, 3 days incubation
Summary of the method: as §1

COc1nnc(O[C@@H]2C[C@H]3C(=O)N[C@]4(C(=O)NS(=O)(=O)C5CC5)C[C@H]4/C=C\CC[C@H](C)C[C@@H](C)[C@H](NC(=O)OC(C)(C)C(F)(F)F)C(=O)N3C2)c2ccccc12 [Compound 5005, 1,1,1-trifluoro-2-methylpropan-2-yl((2R,6S,7R,9S,13aS,14aR,16aS,Z)-14a-((cyclopropylsulfonyl)carbamoyl)-2-((4-methoxyphthalazin-1-yl)oxy)-7,9-dimethyl-5,16-dioxo-1,2,3,5,6,7,8,9,10,11,13a,14,14a,15,16,16a-hexadecahydrocyclopropa[e]pyrrolo[1,2-a][1,4]diazacyclopentadecin-6-yl)carbamate]
pEC50 ([1]; read-out: LE_1b (EC50, range)): > 8.26 | pEC50 ([2]; read-out: LE_1a (EC50, range)): > 8.26

COc1nnc(O[C@@H]2C[C@H]3C(=O)N[C@]4(C(=O)NS(=O)(=O)C5CC5)C[C@H]4/C=C\CC[C@@H](C)C[C@@H](C)[C@H](NC(=O)OC(C)(C)C(F)(F)F)C(=O)N3C2)c2ccccc12 [Compound 5006, 1,1,1-trifluoro-2-methylpropan-2-yl((2R,6S,7R,9R,13aS,14aR,16aS,Z)-14a-((cyclopropylsulfonyl)carbamoyl)-2-((4-methoxyphthalazin-1-yl)oxy)-7,9-dimethyl-5,16-dioxo-1,2,3,5,6,7,8,9,10,11,13a,14,14a,15,16,16a-hexadecahydrocyclopropa[e]pyrrolo[1,2-a][1,4]diazacyclopentadecin-6-yl)carbamate]
pEC50 ([1]; read-out: LE_1b (EC50, range)): > 8.26 | pEC50 ([2]; read-out: LE_1a (EC50, range)): > 8.26

COc1nnc(O[C@@H]2C[C@H]3C(=O)N[C@]4(C(=O)NS(=O)(=O)C5(C)CC5)C[C@H]4/C=C\CC[C@H](C)C[C@@H](C)[C@H](NC(=O)OC(C)(C)C(F)(F)F)C(=O)N3C2)c2ccccc12 [Compound 5007, 1,1,1-trifluoro-2-methylpropan-2-yl((2R,6S,7R,9S,13aS,14aR,16aS,Z)-2-((4-methoxyphthalazin-1-yl)oxy)-7,9-dimethyl-14a-(((1-methylcyclopropyl)sulfonyl)carbamoyl)-5,16-dioxo-1,2,3,5,6,7,8,9,10,11,13a,14,14a,15,16,16a-hexadecahydrocyclopropa[e]pyrrolo[1,2-a][1,4]diazacyclopentadecin-6-yl)carbamate]
pEC50 ([1]; read-out: LE_1b (EC50, range)): > 8.26 | pEC50 ([2]; read-out: LE_1a (EC50, range)): > 8.26

COc1nnc(O[C@@H]2C[C@H]3C(=O)N[C@]4(C(=O)NS(=O)(=O)C5(C)CC5)C[C@H]4/C=C\CC[C@@H](C)C[C@@H](C)[C@H](NC(=O)OC(C)(C)C(F)(F)F)C(=O)N3C2)c2ccccc12 [Compound 5008, 1,1,1-trifluoro-2-methylpropan-2-yl((2R,6S,7R,9R,13aS,14aR,16aS,Z)-2-((4-methoxyphthalazin-1-yl)oxy)-7,9-dimethyl-14a-(((1-methylcyclopropyl)sulfonyl)carbamoyl)-5,16-dioxo-1,2,3,5,6,7,8,9,10,11,13a,14,14a,15,16,16a-hexadecahydrocyclopropa[e]pyrrolo[1,2-a][1,4]diazacyclopentadecin-6-yl)carbamate]
pEC50 ([1]; read-out: LE_1b (EC50, range)): > 8.26 | pEC50 ([2]; read-out: LE_1a (EC50, range)): > 8.26

[2H]C([2H])([2H])C(OC(=O)N[C@@H]1C(=O)N2C[C@H](Oc3nnc(OC)c4ccccc34)C[C@H]2C(=O)N[C@]2(C(=O)NS(=O)(=O)C3(C)CC3)C[C@H]2/C=C\CC[C@H](C)C[C@H]1C)(C([2H])([2H])[2H])C(F)(F)F [Compound 5009]
pEC50 ([1]; read-out: LE_1b (EC50, range)): > 8.26 | pEC50 ([2]; read-out: LE_1a (EC50, range)): > 8.26

[2H]C([2H])([2H])C(OC(=O)N[C@@H]1C(=O)N2C[C@H](Oc3nnc(OC)c4ccccc34)C[C@H]2C(=O)N[C@]2(C(=O)NS(=O)(=O)C3(C)CC3)C[C@H]2/C=C\CC[C@@H](C)C[C@H]1C)(C([2H])([2H])[2H])C(F)(F)F [Compound 5010]
pEC50 ([1]; read-out: LE_1b (EC50, range)): > 8.26 | pEC50 ([2]; read-out: LE_1a (EC50, range)): > 8.26

COc1nnc(O[C@@H]2C[C@H]3C(=O)N[C@]4(C(=O)NS(=O)(=O)C5(C)CC5)C[C@H]4/C=C\CC[C@H](C)C[C@@H](C)[C@H](NC(=O)NC(C)(C)C)C(=O)N3C2)c2ccccc12 [Compound 5011, (2R,6S,7R,9S,13aS,14aR,16aS,Z)-6-(3-(tert-butyl)ureido)-2-((4-methoxyphthalazin-1-yl)oxy)-7,9-dimethyl-N-((1-methylcyclopropyl)sulfonyl)-5,16-dioxo-1,2,3,5,6,7,8,9,10,11,13a,14,14a,15,16,16a-hexadecahydrocyclopropa[e]pyrrolo[1,2-a][1,4]diazacyclopentadecine-14a-carboxamide]
pEC50 ([1]; read-out: LE_1b (EC50)): 7.85 | pEC50 ([1]; read-out: LE_1b (EC50, range)): 6.99 to 8.32 | pEC50 ([2]; read-out: LE_1a (EC50)): 7.39 | pEC50 ([2]; read-out: LE_1a (EC50, range)): 6.99 to 8.32

COc1nnc(O[C@@H]2C[C@H]3C(=O)N[C@]4(C(=O)NS(=O)(=O)C5(C)CC5)C[C@H]4/C=C\CC[C@@H](C)C[C@@H](C)[C@H](NC(=O)NC(C)(C)C)C(=O)N3C2)c2ccccc12 [Compound 5012, (2R,6S,7R,9R,13aS,14aR,16aS,Z)-6-(3-(tert-butyl)ureido)-2-((4-methoxyphthalazin-1-yl)oxy)-7,9-dimethyl-N-((1-methylcyclopropyl)sulfonyl)-5,16-dioxo-1,2,3,5,6,7,8,9,10,11,13a,14,14a,15,16,16a-hexadecahydrocyclopropa[e]pyrrolo[1,2-a][1,4]diazacyclopentadecine-14a-carboxamide]
pEC50 ([1]; read-out: LE_1b (EC50, range)): > 8.26 | pEC50 ([2]; read-out: LE_1a (EC50, range)): > 8.26

COc1nnc(O[C@@H]2C[C@H]3C(=O)N[C@]4(C(=O)NS(=O)(=O)C5(C)CC5)C[C@H]4/C=C\CC[C@H](C)C[C@@H](C)[C@H](NC(=O)O[C@@H]4C[C@@H]5C[C@@H]5C4)C(=O)N3C2)c2ccccc12 [Compound 5013, (1R,3r,5S)-bicyclo[3.1.0]hexan-3-yl((2R,6S,7R,9S,13aS,14aR,16aS,Z)-2-((4-methoxyphthalazin-1-yl)oxy)-7,9-dimethyl-14a-(((1-methylcyclopropyl)sulfonyl)carbamoyl)-5,16-dioxo-1,2,3,5,6,7,8,9,10,11,13a,14,14a,15,16,16a-hexadecahydrocyclopropa[e]pyrrolo[1,2-a][1,4]diazacyclopentadecin-6-yl)carbamate]
pEC50 ([1]; read-out: LE_1b (EC50, range)): > 8.26 | pEC50 ([2]; read-out: LE_1a (EC50, range)): > 8.26

COc1nnc(O[C@@H]2C[C@H]3C(=O)N[C@]4(C(=O)NS(=O)(=O)C5(C)CC5)C[C@H]4/C=C\CC[C@@H](C)C[C@@H](C)[C@H](NC(=O)O[C@@H]4C[C@@H]5C[C@@H]5C4)C(=O)N3C2)c2ccccc12 [Compound 5014, (1R,3r,5S)-bicyclo[3.1.0]hexan-3-yl((2R,6S,7R,9R,13aS,14aR,16aS,Z)-2-((4-methoxyphthalazin-1-yl)oxy)-7,9-dimethyl-14a-(((1-methylcyclopropyl)sulfonyl)carbamoyl)-5,16-dioxo-1,2,3,5,6,7,8,9,10,11,13a,14,14a,15,16,16a-hexadecahydrocyclopropa[e]pyrrolo[1,2-a][1,4]diazacyclopentadecin-6-yl)carbamate]
pEC50 ([1]; read-out: LE_1b (EC50, range)): > 8.26 | pEC50 ([2]; read-out: LE_1a (EC50, range)): > 8.26

COc1nnc(O[C@@H]2C[C@H]3C(=O)N[C@]4(C(=O)NS(=O)(=O)C5(C)CC5)C[C@H]4/C=C\CC[C@H](C)C[C@@H](C)[C@H](NC(=O)OC(C)(C)C)C(=O)N3C2)c2ccccc12 [Compound 5015, tert-butyl ((2R,6S,7R,9S,13aS,14aR,16aS,Z)-2-((4-methoxyphthalazin-1-yl)oxy)-7,9-dimethyl-14a-(((1-methylcyclopropyl)sulfonyl)carbamoyl)-5,16-dioxo-1,2,3,5,6,7,8,9,10,11,13a,14,14a,15,16,16a-hexadecahydrocyclopropa[e]pyrrolo[1,2-a][1,4]diazacyclopentadecin-6-yl)carbamate]
pEC50 ([1]; read-out: LE_1b (EC50, range)): > 8.26 | pEC50 ([2]; read-out: LE_1a (EC50, range)): 6.99 to 8.32

COc1nnc(O[C@@H]2C[C@H]3C(=O)N[C@]4(C(=O)NS(=O)(=O)C5(C)CC5)C[C@H]4/C=C\CC[C@@H](C)C[C@@H](C)[C@H](NC(=O)OC(C)(C)C)C(=O)N3C2)c2ccccc12 [Compound 5016, tert-butyl ((2R,6S,7R,9R,13aS,14aR,16aS,Z)-2-((4-methoxyphthalazin-1-yl)oxy)-7,9-dimethyl-14a-(((1-methylcyclopropyl)sulfonyl)carbamoyl)-5,16-dioxo-1,2,3,5,6,7,8,9,10,11,13a,14,14a,15,16,16a-hexadecahydrocyclopropa[e]pyrrolo[1,2-a][1,4]diazacyclopentadecin-6-yl)carbamate]
pEC50 ([1]; read-out: LE_1b (EC50, range)): > 8.26 | pEC50 ([2]; read-out: LE_1a (EC50, range)): > 8.26

CC[C@@H]1C[C@@H](C)CC/C=C\[C@@H]2C[C@@]2(C(=O)NS(=O)(=O)C2(C)CC2)NC(=O)[C@@H]2C[C@@H](Oc3nnc(OC)c4ccccc34)CN2C(=O)[C@H]1NC(=O)OC(C)(C)C(F)(F)F [Compound 5017, 1,1,1-trifluoro-2-methylpropan-2-yl((2R,6S,7R,9S,13aS,14aR,16aS,Z)-7-ethyl-2-((4-methoxyphthalazin-1-yl)oxy)-9-methyl-14a-(((1-methylcyclopropyl)sulfonyl)carbamoyl)-5,16-dioxo-1,2,3,5,6,7,8,9,10,11,13a,14,14a,15,16,16a-hexadecahydrocyclopropa[e]pyrrolo[1,2-a][1,4]diazacyclopentadecin-6-yl)carbamate]
pEC50 ([1]; read-out: LE_1b (EC50, range)): > 8.26 | pEC50 ([2]; read-out: LE_1a (EC50, range)): 6.99 to 8.32

CC[C@@H]1C[C@H](C)CC/C=C\[C@@H]2C[C@@]2(C(=O)NS(=O)(=O)C2(C)CC2)NC(=O)[C@@H]2C[C@@H](Oc3nnc(OC)c4ccccc34)CN2C(=O)[C@H]1NC(=O)OC(C)(C)C(F)(F)F [Compound 5018, 1,1,1-trifluoro-2-methylpropan-2-yl((2R,6S,7R,9R,13aS,14aR,16aS,Z)-7-ethyl-2-((4-methoxyphthalazin-1-yl)oxy)-9-methyl-14a-(((1-methylcyclopropyl)sulfonyl)carbamoyl)-5,16-dioxo-1,2,3,5,6,7,8,9,10,11,13a,14,14a,15,16,16a-hexadecahydrocyclopropa[e]pyrrolo[1,2-a][1,4]diazacyclopentadecin-6-yl)carbamate]
pEC50 ([1]; read-out: LE_1b (EC50, range)): > 8.26 | pEC50 ([2]; read-out: LE_1a (EC50, range)): > 8.26
